Test results from patent US10092541B2, “Methods for the treatment of diseases ameliorated by PDE4 inhibition using dosage titration of apremilast” (CELGENE CORPORATION, priority 2014, dated 2018).
Marks after values point to notes of the source that are not given here.

Key:
[1] = test system: patients with moderate to severe plaque psoriasis; experiment: Esteem 1: randomized, double-blind, placebo controlled, multicenter clinical study in psoriasis; format: in vivo, human; conditions: for PASI-75, %: primary endpoint
Description: In the study 844 patients were enrolled; patients ranged in age from 18 to 83 years, with an overall median age of 46 years. The mean baseline body surface area (BSA) involvement was 25.19% (median 21.0%), the mean baseline PASI score was 19.07 (median 16.80), and the proportion of patients with sPGA score of 3 (moderate) and 4 (severe) at Baseline were 70.0% and 29.8%, respectively. Patients were randomized to Apremilast, in an amount of 30 mg twice per day (after the initial dose titration schedule) or placebo for the first 16 weeks, and from Weeks 16 to 32, all patients received Apremilast in an amount of 30 mg twice per day.
Target Dose: 30 mg (po) BID
Day 1: 10 mg in the morning
Day 2: 10 mg morning; 10 mg after noon
Day 3: 10 mg morning; 20 mg after noon
Day 4: 20 mg morning; 20 mg after noon
Day 5: 20 mg morning; 30 mg after noon
During the Randomized Treatment Withdrawal Phase (Weeks 32-52), patients originally randomized to Apremilast who achieved at least a 75% reduction in PASI score (PASI-75) at Week 32 were re-randomized to either placebo or Apremilast 30 mg BID. Patients who were re-randomized to placebo and who lost PASI-75 response at Week 32 compared to Baseline, were retreated with Apremilast 30 mg BID.

peripheral whole blood = experiment: Differential gene expression analyses (microarray) in atopic dermatitis patients; format: in vivo, human
Description: As an exploratory end point to potentially identify immune pathways affected by apremilast, peripheral whole blood was obtained for differential gene expression analyses at baseline and after 3 (cohort 1) and 6 (cohort 2) months of treatment to determine apremilast's potential mechanism of action in patients with atopic dermatitis. RNA isolation and microarray analyses were performed in the Oregon Health and Science University Gene Microarray Shared Resource. Total RNA was isolated from PAXGene tubes using the PAXGene Blood RNA Isolation kit (QIAGEN Inc). RNA quantity was measured by spectrophotometric analysis; RNA quality was evaluated by size analysis on the Bioanalyzer 2100 (Agilent Technologies Inc). All samples passed RNA quality assessment review.
RNA samples were labeled using the OvationWTAPico Amplification and Labeling System (NuGEN Technologies Inc). Fifty nanograms of each sample were amplified with the Ovation WTA Pico kit, converted to sense complementary DNA (cDNA) with the WT-Ovation Exon Module, version 1, kit, and labeled with the Encore Biotin Module kit. Hybridization and array processing were performed as described in the NuGEN Encore Biotin Module User Guide http://www.nugeninc.com/tasks/sites/nugen/assets/File/user_guides/userguide_encore_biotin.pdf). Two micrograms of each labeled cDNA target werehybridized with the GeneChip Human Gene 1.0 ST array (Affymetrix) and scanned on the Affymetrix GeneChip 3000 Scanner. The array image was processed with Affymetrix Command Console (version 3.1.1). Data were normalized using the robust multichip average method.
Differential expression analyses were performed on 16 paired samples. All putatively differentially expressed genes were based on false discovery rate-adjusted P values<0.05. Based on the putative differentially expressed gene list, both enriched pathways and functional gene ontologic characteristics were identified (P<0.05 for hypergeometric test) in the GoStats package within the Bioconductor statistical programming environment (http://www.bioconductor.org).

[2] = 77 PASI 75 responders re-randomized to apremilast 30 mg BID at Week 32
[3] = Week 16, 30 mg twice daily, n = 562, LOCF
[4] = Week 16, 30 mg twice daily, n = 562, LOCF, listed as Apremilast
[5] = Week 16, 30 mg twice daily, patients with baseline DLQI >5, n = 459
[6] = Week 16, 30 mg twice daily, patients with nail psoriasis at baseline, n = 363
[7] = cohort 1, 20 mg twice a day, baseline vs 3 months

Discontinuation due to upper respiratory tract infection ([1]; human, in vivo): No patient discontinued
Structure (SMILES): CCOc1cc([C@@H](CS(C)(=O)=O)N2C(=O)c3cccc(NC(C)=O)c3C2=O)ccc1OC [apremilast, (+)-2-[1-(3-ethoxy-4-methoxyphenyl)-2-methylsulfonylethyl]-4-acetylaminoisoindoline-1,3-dione]
Non-overlapping confidence intervals vs placebo in mean percentage improvement in PASI from baseline, first detected ([1]; 30 mg twice daily): as early as Week 2
Responses to apremilast from Weeks 16 to 32 ([1]; 30 mg twice daily): generally maintained
regained PASI 75 response after re-treatment, % ([1]; 64 patients re-randomized to placebo who re-initiated apremilast before Week 52 after losing PASI 75): 70.3%
PASI-75 response at Week 52, % [1, 2]: 61.0%
at least 70% improvement in PASI score from baseline at Week 52, % [1, 2]: 75.3%
Mean change in DLQI score [1, 3]: −6.6
PASI-50, % [1, 3]: (58.7%)*
PASI-90, % [1, 3]: (9.8%)*
Percentage change in PASI score, mean (SD) [1, 3]: −52.1%
Percentage change in PASI score, median (range) [1, 3]: −59.0%
sPGA response (score 0 or 1 with at least two-point reduction), % [1, 3]: 21.7%
sPGA response (score 0 or 1 with at least two-point reduction), % [1, 4]: (21.7%)*
PASI-75, % [1, 3]: 33.1%
PASI-75, % [1, 4]: (33.1%)*
DLQI + PASI-50 response, % [1, 5]: (48.1%)*
DLQI response (decrease of at least five points), % [1, 5]: (70.2%)*
NAPSI-50, % [1, 6]: (33.3%)*
Percentage change in NAPSI score, mean (SD) [1, 6]: −22.5%
ScPGA score 0-1, % ([1]; Week 16, 30 mg twice daily, patients with scalp psoriasis (ScPGA at least 3) at baseline, n = 374): (46.5%)*
Severity of the majority of adverse events ([1]; did not lead to discontinuation): mild to moderate
5 most common adverse events (AEs) ([1]; human, in vivo): diarrhea, nausea, upper respiratory tract infection, tension headache, and headache
Discontinuations due to AEs: diarrhea ([1]; human, in vivo): 0.8%
Discontinuations due to AEs: headache ([1]; human, in vivo): 0.4%
Discontinuations due to AEs: nausea ([1]; human, in vivo): 1.2%
Discontinuations due to AEs: tension headache ([1]; human, in vivo): 0.2%
Mean percentage change from baseline in PASI score at Week 52 ([1]; patients re-randomized to apremilast 30 mg BID at Week 32): 80.5%
Median time to first loss of PASI 75 after re-randomization ([1]; patients re-randomized to apremilast at Week 32): 17.7 weeks
signs and symptoms of psoriasis ([1]; study conclusion): significantly improved
BAD (bcl-2 antagonist of cell death) phosphorylation pathway gene expression (peripheral whole blood; [7]): significant differential expression
IL-12 signaling (gene ontologic analysis) (peripheral whole blood; [7]): significant differential expression
cAMP response element binding (CREB) pathway gene expression (peripheral whole blood; [7]): significant differential expression
chemokine-mediated signaling (gene ontologic analysis) (peripheral whole blood; [7]): significant differential expression
cytoskeleton remodeling (gene ontologic analysis) (peripheral whole blood; [7]): significant differential expression
regulation of immune complex clearing by monocytes and macrophages (gene ontologic analysis) (peripheral whole blood; [7]): significant differential expression
CCR3 signaling in eosinophils gene expression (peripheral whole blood; cohort 2, 30 mg twice a day, baseline vs 6 months): significant differential expression
